Patent US8044213B2, “Thiazolyl-benzimidazoles” (Hoffmann-La Roche Inc., priority 2008, dated 2011)

How the values were obtained:
PLK1 = molecular target: T1, PLK1 (Homo sapiens, UniProt P53350); assay: Biochemical Characterization Assay B (peptide substrate, LABCHIP EZ Reader II); details: PLK1, peptide RRRAGALMDASFEEQ-CONH2, % conversion on LABCHIP EZ Reader II
T1 construct: Full-length, active GST-Plk1 was purified from Sf9 insect cells; GST (N); made in house; host or cells: Sf9 insect cells
T1 sequence (P53350 whole entry): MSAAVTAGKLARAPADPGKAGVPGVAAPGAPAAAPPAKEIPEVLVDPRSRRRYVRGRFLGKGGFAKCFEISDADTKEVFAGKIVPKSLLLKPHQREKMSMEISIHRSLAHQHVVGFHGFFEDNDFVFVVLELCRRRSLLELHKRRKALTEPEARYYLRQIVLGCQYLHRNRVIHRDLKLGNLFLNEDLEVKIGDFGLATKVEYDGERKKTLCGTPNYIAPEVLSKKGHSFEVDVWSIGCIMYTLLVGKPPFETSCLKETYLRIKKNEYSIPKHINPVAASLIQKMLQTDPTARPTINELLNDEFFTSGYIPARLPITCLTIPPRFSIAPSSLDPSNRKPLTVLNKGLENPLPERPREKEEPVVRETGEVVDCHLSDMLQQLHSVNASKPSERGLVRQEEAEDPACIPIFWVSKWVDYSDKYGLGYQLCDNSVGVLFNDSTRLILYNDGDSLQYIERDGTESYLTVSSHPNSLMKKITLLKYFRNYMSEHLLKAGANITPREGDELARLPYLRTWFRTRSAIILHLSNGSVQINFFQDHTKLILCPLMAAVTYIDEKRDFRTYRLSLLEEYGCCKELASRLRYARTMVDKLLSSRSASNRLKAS
Description: Compounds were serially diluted to 6400, 2133, 711, 237, 79, 26, 8.78, 2.93, 0.98 and 0.33 μM in 100% DMSO. Diluted compound was further diluted 20 fold with Kinase Assay Buffer (KAB). Peptide RRRAGALMDASFEEQ-CONH2 (MW 2090) was diluted to 1.2 μM with KAB and ATP was added to 400 μM. PLK1 stock, prepared as described above, was diluted to 3 μg protein/mL with KAB right before it was added to MATRIX 384-Well Polypropylene Black Plates to start the reaction. 20 μL of KAB diluted compounds (or 5% DMSO in KAB for Total and Blank), 20 μL of KAB diluted peptide with ATP and 40 μL of KAB diluted PLK1 solution (KAB without PLK 1 for Blanks) were transferred to each well of the polypropylene plates. The reaction mixtures were incubated at room temperature for 40 minutes. Reactions were stopped by addition of 10 uL Reaction Stopping Buffer (RSB) to each well. Plates were then read on LABCHIP EZ Reader II from Caliper Life Science.
(§1) The IC50 values for each compound were generated using an Excel template. The % conversion readings of Total and Blank were used as 0% and 100% inhibition. The percent inhibition values of reactions in the presence of compounds were calculated, and plotted against compound concentrations. All data were fitted into a Dose Response One Site model (4 parameter logistic model) as the following: (A+4B−A)/(1+((x/C)^13)))), with A and B as the bottom and top of the curve (highest and lowest inhibition), respectively, and C as IC50 and D as Hill Coefficient of the compound.

GST-Plk1 = molecular target: T2, GST-Plk1 (Homo sapiens, UniProt P53350); assay: Biochemical Characterization Assay A (HTRF, phosphorylation of GST-p53); details: full-length GST-Plk1, GST-p53 substrate, HTRF signal
T2 construct: Full-length, active GST-Plk1 was purified from Sf9 insect cells; made in house; host or cells: Sf9 insect cells
T2 sequence (P53350 whole entry): as above
Description: Full-length, active GST-Plk1 was purified from Sf9 insect cells, and full-length GST-p53 was purified in E. coli. Anti-phospho p53 antibody was purchased from Cell Signaling Technology. Europium-conjugated anti-rabbit antibody was purchased from PerkinElmer Life and Analytical Sciences. APC-conjugated anti-GST antibody was purchased from Prozyme.
To two microliters of compound (0.6 nM-4 mM) in DMSO or plain DMSO for control wells, 38 microliters of 20 mM HEPES pH 7, 50 mM NaCl, 10 mM MgCl2, 0.5 mM TCEP, 0.1 mM sodium orthovanadate, 0.1 mg/ml BSA, and 0.05% Triton X-100 (Kinase Assay Buffer) were added. Eight microliters of the compound solution were added to a 384-well black microtiter plate, followed by six microliters of GST-p53 (17 ug/ml) and ATP (333 uM) in Kinase Assay Buffer. Six microliters of GST-Plk1 (3 ug/ml) in Kinase Assay Buffer were then added and the solution incubated at 37° C. for 35 minutes. Six microliters of solution containing 43 mM EDTA to stop the reaction and a 1:600 dilution of anti-phospho-p53 antibody in 20 mM HEPES pH 7, 50 mM NaCl, and 0.5 mg/ml BSA (Antibody Binding Buffer) were added and the solution incubated at 37° C. for 30 minutes. Six microliters of solution containing 9 nM europium-conjugated anti-rabbit antibody and 120 nM APC-conjugated anti-GST antibody in Antibody Binding Buffer were then added and the mixture incubated at room temperature for 1.5 hours. The HTRF signal was read on the Envision reader (PerkinElmer Life and Analytical Sciences).
as §1

Row | Compound | IC50 (PLK1) [nM] | IC50 (GST-Plk1) [nM]
1 | COc1cc2ncn(-c3nc(-c4cccc(Cl)c4)c(C(N)=O)s3)c2cc1OCCCN1CCN(C)CC1 [Example 42, 4-(3-Chloro-phenyl)-2-{5-methoxy-6-[3-(4-methyl-piperazin-1-yl)-propoxy]-benzoimidazol-1-yl}-thiazole-5-carboxylic acid amide] | 60 | 19
2 | CN1CCN(Cc2ccc3ncn(-c4nc(-c5cccc(C(F)(F)F)c5)c(C(N)=O)s4)c3c2)CC1 [Example 48, 2-[6-(4-Methyl-piperazin-1-ylmethyl)-benzoimidazol-1-yl]-4-(3-trifluoromethyl-phenyl)-thiazole-5-carboxylic acid amide] |  | 59
